Experimental data published in patent publication US10428151B2, “Treatment of hematologic malignancies with an anti-CXCR4 antibody” (BRISTOL-MYERS SQUIBB COMPANY, priority 2011, dated 2019).
“And” between values parts separate entries of the source, which are not always exact repeats. Identical values can stand only once.

How the values were obtained:
primary MM cells = details: Roccaro et al., 2012; cited from earlier work
[1] = tested on: human umbilical vein endothelial cells (HuVEC); experiment: HuVEC capillary tube formation; format: cell-based; details: HuVEC on MATRIGEL, 18 hours
Protocol: In this example, the ability of the anti-CXCR4 human antibodies to inhibit capillary tube formation by human umbilical vein endothelial cells (HuVEC) was examined […]® was diluted 1:1 with RPMI and plated onto the wells of a 96 well plate and allowed to polymerize for 30 minutes at 37° C. HuVEC (from Cambrex, cat. # CC-2519) at 80% confluence were trypsinized and resuspended at 1×10^6 cells per ml in RPMI with 0.5% FBS. Antibodies were well mixed with HuVEC at a final concentration of 3 mg/ml and allowed to incubate at room temperature for 30 minutes. An irrelevant antibody of the same isotype or media alone was used as a negative control. As a positive control of inhibition of tube formation, a mouse anti-human αvβ3 (CD51/CD61) antibody (R&D Systems, cat. # MAB3050) was used. HuVEC with or without antibodies were plated onto the […]®-coated wells and incubated at 37° C. for 18 hours.
The HuVEC incubated with media alone or with the isotype-matched control antibody formed capillary tubes resulting in the appearance of connected cells across the plate with 3-5 points of connection or branch points per cell. […] The cells appeared isolated and with few or no branch points.

[2] = tested on: SU-DHL-6 B cell lymphoma cells; experiment: SU-DHL-6 subcutaneous xenograft; format: in vivo, mouse
Protocol: (§1) Additional subcutaneous xenograft tumor models were tested for the ability of anti-CXCR4 antibodies to inhibit tumor growth, in experiments similar to those described above and in Example 9. […] Although the tumor cells in vivo were stainable by the mAb by immunohistochemistry, it is unclear at what stage of their tumor growth CXCR4 began to be expressed.

MM cells [3] = details: Roccaro et al., 2012; cited from earlier work
[4] = tested on: Namalwa Burkitt's lymphoma cells; experiment: Namalwa subcutaneous xenograft; format: in vivo, mouse
Protocol: as §1

Ramos cells = experiment: Ramos cell proliferation, Cell-Titer-Glo; format: cell-based, human; details: 40 nM; 72 hours; compared to isotype control
Protocol: Ramos cells were suspended at 1×10^5 cells/mL in growth media, incubated with the relevant antibodies, including isotype controls, and other test agents and cultured for 72 hours at 37° C. Cell-Titer-Glo (Promega) was added to wells, mixed, and incubated at room temperature for 10 minutes. The plate was read on a GloMax Luminometer (Promega).

[5] = tested on: human peripheral blood mononuclear cells (PBMCs); experiment: Flow cytometry binding to human PBMC subsets; details: 33 μg/ml; CD3+, CD20+, CD11b+, CD14+ subsets; vs isotype-matched control
Description: Human PBMCs were isolated by standard methods and different cellular subsets were isolated by FACS. In particular, the following cellular subsets were isolated: (i) CD3^+, (ii) CD20^+; (iii) CD11b^+ and (iv) CD14^+.

MM.1S cells = experiment: MM.1S MM xenograft in SCID mice; format: in vivo
melanoma = melanoma xenograft model; compared to vehicle-treated mice; Roccaro et al., 2012; cited from earlier work
parental R1610 cells = experiment: Apoptosis of parental R1610 cells, Annexin V-FITC/PI; format: cell-based, hamster; details: 24 hours
Protocol: MDX-1338 or isotype control were added to CXCR4-transfected cells (A) or R1610 parental cells (B) and stained with Annexin V-FITC and PI. The percentages of cells that were positive for Annexin V only or doubly positive for both Annexin V and PI double positive are illustrated.
The percent of cells that are positive for Annexin V only or both Annexin V and PI double positive was determined.

CLL cells = details: 2-200 nM; Kashyap et al., 2012; cited from earlier work
[6] = tested on: HPAC human pancreatic adenocarcinoma cells; experiment: HPAC subcutaneous xenograft; format: in vivo, mouse
Protocol: as §1

B16-CXCR4 cells = experiment: B16-CXCR4 lung metastases, C57 mouse systemic tumor model; format: in vivo; details: day 14, 5 mg/kg IP
Protocol: In this example, the ability of the F7 anti-CXCR4 mAb to inhibit lung metastases was examined using a C57 mouse systemic tumor model. More specifically, 0.4×10^6 B16-CXCR4 cells (B16 cells transfected to express human CXCR4) were injected intravenously into each of 30 mice of the C57 strain. The mice were randomized into three groups of ten mice each, which were then treated with either (i) vehicle (PBS); (ii) IgG4 isotype control (5 mg/kg); or (iii) F7 IgG4 (5 mg/kg). The antibody or vehicle was injected intraperitoneally 30 minutes after the B16-CXCR4 cells were injected intravenously. Lungs were harvested on day 14 and the number of lung metastasis nodules was quantitated.

MM cells [7] = details: compared to vehicle-treated mice; Roccaro et al., 2012; cited from earlier work
Nomo-1 = Nomo-1 AML xenograft; format: in vivo, SCID mice
Description: In the Nomo-1 model (7.5 million cells implanted subcutaneously as in Example 14).

parental JJN-3 cells = experiment: JJN-3 MM xenograft in SCID mice; format: in vivo; details: Day 25; compared to vehicle control; MDX-1338 10 mg/kg/dose IP, bortezomib 0.8 mg/kg/dose IV
Description: 5 million JJN-3 cells/mouse were implanted into SCID mice and the mice were randomized into groups of 8 when the tumor volume reached approximately 77 mm^3.

RPMI-8226 cells = experiment: RPMI-8226 MM xenograft in SCID mice; format: in vivo
Protocol: The mice were randomized (n=8) when the tumor volume reached approximately 20 mm^3, dosed on Days 0, 3, 7, 10 and 14 with MDX-1338 (10 mg/kg/dose) alone or in combination with 50 mg/kg lenalidomide or in combination with 0.8 mg/kg bortezomib.

[8] = tested on: NIH-H226 lung carcinoma cells; experiment: NIH-H226 subcutaneous xenograft; format: in vivo, mouse
Protocol: as §1

Substance: BMS-936564: fully human anti-CXCR4 monoclonal antibody; VH SEQ ID NO: 25, VL SEQ ID NO: 29
- adhesion of primary MM cells to BMSCs (primary MM cells): inhibited by BMS936564 in a dose-dependent manner
- inhibition of capillary tube formation [1]: most effective in inhibiting capillary tube formation
- % Tumor Growth Inhibition (Monotherapy) ([2]; DHL6): 55% and 77%
- tumor growth inhibition ([2]; SU-DHL-6, 15 mg/kg): approximately 60%
- migration of MM cells toward CXCL12 and primary MM BMSCs (MM cells [3]): inhibited migration
- % Tumor Growth Inhibition (Monotherapy) [4]: 66%
- tumor growth inhibition ([4]; 3 mg/kg): approximately 70%
- maximum inhibition of Ramos cell proliferation (Ramos cells): about 50%
- binding to PBMC subsets [5]: capable of binding effectively to each of the four subsets
- mean tumor growth inhibition (MM.1S cells; Day 25, compared to isotype control, MDX-1338 10 mg/kg/dose, lenalidomide 100 mg/kg): 60%
- % Tumor Growth Inhibition (Monotherapy) (MM.1S cells; MM.1S): 49%
- tumor growth inhibition (MM.1S cells; MM.1S): MDX-1338 = 60%
- number of metastasis (melanoma): reduced number of metastasis
- apoptosis of parental R1610 cells (parental R1610 cells): did not exhibit apoptosis
- cell death in CLL cells cultured alone and in the MRD model (CLL cells): induced cell death
- tumor growth inhibition [6]: no tumor growth inhibition
- Number of Lung Metastases Mean (B16-CXCR4 cells): 157
- Number of Lung Metastases Median (B16-CXCR4 cells): 186
- % Inhibition of Lung Mets (Mean) (B16-CXCR4 cells; listed as F7 Anti-CXCR4 IgG4, 5 mg/kg): 56%
- % Inhibition of Lung Mets (Mean) (B16-CXCR4 cells; listed as F7 mAb, 5 mg/kg): 56%
- MM cell dissemination to distant bone marrow niches (MM cells [7]): less MM cell dissemination
- % Tumor Growth Inhibition (Monotherapy) (Nomo-1; Nomo-1): 88%
- median tumor growth inhibition (Nomo-1; day 34, 10 mg/kg/dose, compared to isotype or vehicle control): 88%
- tumor growth inhibition (parental JJN-3 cells): 52%
- delay of mean tumor growth (RPMI-8226 cells; Day 44, 10 mg/kg/dose, compared to vehicle control): 53%
- mean tumor growth inhibition (RPMI-8226 cells; Day 44, compared to isotype control, MDX-1338 10 mg/kg, lenalidomide 50 mg/kg, bortezomib 0.8 mg/kg): 61%
- tumor growth inhibition (RPMI-8226 cells; RPMI-8226): MDX-1338 = 61%
- tumor growth inhibition [8]: no tumor growth inhibition
